Numbered stars: 1 amine (or outer) side, 2 acyl side, 3 side chain; on linkers, the order of the positions; unused ones are H or OH. Square brackets hold non-standard residues; d marks the D form. Peptide text beside a SMILES is read from it. * marks the point of attachment. X4 = O=C([C@@H]1Cc2ccc(OP(=O)(O)O)cc2CN1[*:1])[*:2]; pY = N[C@@H](Cc1ccc(OP(=O)(O)O)cc1)C(=O)O; X7 = O=C(Cc1c[nH]c2ccc(OP(=O)(O)O)cc12)*; aThr = C[C@H](O)[C@H](N)C(=O)O
Target: Signal transducer and activator of transcription 3 (Homo sapiens, UniProt P40763)
Sequence (P40763 whole entry): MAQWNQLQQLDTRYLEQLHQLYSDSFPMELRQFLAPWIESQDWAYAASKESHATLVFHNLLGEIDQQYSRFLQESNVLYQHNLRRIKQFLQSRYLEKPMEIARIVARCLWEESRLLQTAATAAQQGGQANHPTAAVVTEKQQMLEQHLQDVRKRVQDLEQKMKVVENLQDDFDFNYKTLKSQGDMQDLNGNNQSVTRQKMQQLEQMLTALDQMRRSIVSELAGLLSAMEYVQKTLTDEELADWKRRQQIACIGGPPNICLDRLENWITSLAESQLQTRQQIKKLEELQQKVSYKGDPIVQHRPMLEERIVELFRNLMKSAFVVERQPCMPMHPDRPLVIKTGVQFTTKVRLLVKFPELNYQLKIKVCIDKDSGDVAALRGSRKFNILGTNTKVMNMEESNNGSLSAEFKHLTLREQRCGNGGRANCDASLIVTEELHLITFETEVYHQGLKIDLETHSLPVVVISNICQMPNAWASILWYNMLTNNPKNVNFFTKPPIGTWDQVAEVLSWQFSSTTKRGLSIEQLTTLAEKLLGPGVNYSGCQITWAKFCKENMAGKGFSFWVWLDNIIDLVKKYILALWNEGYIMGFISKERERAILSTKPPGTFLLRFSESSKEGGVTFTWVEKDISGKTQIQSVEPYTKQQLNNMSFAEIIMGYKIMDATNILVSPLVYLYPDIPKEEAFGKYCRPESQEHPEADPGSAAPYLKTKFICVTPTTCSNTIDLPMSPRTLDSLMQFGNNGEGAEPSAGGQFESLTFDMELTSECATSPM
Test: Inhibition of Stat3 by fluorescence polarization assay

For `NC(=O)CC[C@H](NC(=O)[C@@H]1Cc2cccc3c2N1C(=O)[C@@H](NC(=O)/C=C/c1ccc(OP(=O)(O)O)cc1)CC3)C(=O)NCc1ccccc1`, the IC50 was 162 nM.
Compound `NC(=O)CC[C@H](NC(=O)[C@@H]1Cc2cccc3c2N1C(=O)[C@@H](NC(=O)/C=C/c1ccc(OP(=O)(O)O)cc1)CC3)C(N)=O` has an IC50 of 233 nM.
`NC(=O)CC[C@H](NC(=O)[C@@H]1CC[C@@H]2CC[C@H](NC(=O)/C=C/c3ccc(OP(=O)(O)O)cc3)C(=O)N21)C(=O)NCc1ccccc1` was tested, and the IC50 was 604 nM.
With `CC(C)C[C@H](NC(=O)Cc1c[nH]c2ccc(OP(=O)(O)O)cc12)C(=O)N1CCC[C@H]1C(=O)N[C@@H](CCC(N)=O)C(=O)N[C@H](C(N)=O)[C@@H](C)O` (X7-LPQT-NH2) the IC50 was > 100000 nM.
`NC(=O)[C@@H]1Cc2cccc3c2N1C(=O)[C@@H](NC(=O)/C=C/c1ccc(OP(=O)(O)O)cc1)CC3` gave an IC50 of 35600 nM.
`NC(=O)CC[C@H](NC(=O)[C@@H]1CC[C@H]2CC[C@H](NC(=O)/C=C/c3ccc(OP(=O)(O)O)cc3)C(=O)N21)C(=O)NCc1ccccc1` showed an IC50 of 45700 nM.
For `NC(=O)C1CCN(C(=O)[C@@H]2Cc3cccc4c3N2C(=O)[C@@H](NC(=O)/C=C/c2ccc(OP(=O)(O)O)cc2)CC4)C1` (some centres not stated), the IC50 was 595 nM.
`C[C@H](NC(=O)[C@@H]1Cc2cccc3c2N1C(=O)[C@@H](NC(=O)/C=C/c1ccc(OP(=O)(O)O)cc1)CC3)C(N)=O` showed an IC50 of 25100 nM.
Compound `CC(C)C[C@H](NC(=O)/C=C/c1ccc(OP(=O)(O)O)cc1)C(=O)N1CCC[C@H]1C(=O)N[C@@H](CCC(N)=O)C(=O)NCc1ccccc1` has an IC50 of 138 nM.
Compound `CC(C)NC(=O)[C@H](CCC(N)=O)NC(=O)[C@@H]1Cc2cccc3c2N1C(=O)[C@@H](NC(=O)/C=C/c1ccc(OP(=O)(O)O)cc1)CC3` has an IC50 of 305 nM.
Work on `NC(=O)CC[C@H](NC(=O)[C@H]1CC[C@H]2CC[C@H](NC(=O)/C=C/c3ccc(OP(=O)(O)O)cc3)C(=O)N21)C(=O)NCc1ccccc1` yielded an IC50 of 59800 nM.
`CS(=O)(=O)CC[C@H](NC(=O)[C@@H]1Cc2cccc3c2N1C(=O)[C@@H](NC(=O)/C=C/c1ccc(OP(=O)(O)O)cc1)CC3)C(N)=O` was tested, and the IC50 was 7030 nM.
In the case of `O=C(O)CCCNC(=O)[C@@H]1Cc2cccc3c2N1C(=O)[C@@H](NC(=O)/C=C/c1ccc(OP(=O)(O)O)cc1)CC3`, the IC50 is reported as 815 nM.
Work on `CC(=O)N[C@@H](Cc1ccc(OP(=O)(O)O)cc1)C(=O)N[C@@H](CC(C)C)C(=O)N1CCC[C@H]1C(=O)N[C@@H](CCC(N)=O)C(=O)N[C@H](C(N)=O)[C@H](C)O` (Ac-[pY]LPQ[aThr]-NH2) yielded an IC50 of 739 nM.
In the case of `CC(=O)N1Cc2cc(OP(=O)(O)O)ccc2C[C@H]1C(=O)N[C@@H](CC(C)C)C(=O)N1CCC[C@H]1C(=O)N[C@@H](CCC(N)=O)C(=O)N[C@H](C(N)=O)[C@@H](C)O` (Ac-[X4]LPQT-NH2), the IC50 is reported as > 100000 nM.
For `C[S+]([O-])CC[C@H](NC(=O)[C@@H]1Cc2cccc3c2N1C(=O)[C@@H](NC(=O)/C=C/c1ccc(OP(=O)(O)O)cc1)CC3)C(N)=O` (some centres not stated), the IC50 was 7600 nM.
`COC(=O)[C@H](CCC(N)=O)NC(=O)[C@@H]1Cc2cccc3c2N1C(=O)[C@@H](NC(=O)/C=C/c1ccc(OP(=O)(O)O)cc1)CC3` gave an IC50 of 141 nM.
Work on `CNC(=O)[C@H](CCC(N)=O)NC(=O)[C@@H]1Cc2cccc3c2N1C(=O)[C@@H](NC(=O)/C=C/c1ccc(OP(=O)(O)O)cc1)CC3` yielded an IC50 of 269 nM.
Compound `NC(=O)CC[C@H](NC(=O)[C@@H]1Cc2cccc3c2N1C(=O)[C@@H](NC(=O)/C=C/c1ccc(OP(=O)(O)O)cc1)CC3)C(=O)O` has an IC50 of 359 nM.
`NC(=O)CC[C@H](NC(=O)[C@@H]1Cc2cccc3c2N1C(=O)[C@@H](NC(=O)/C=C/c1ccc(OP(=O)(O)O)cc1)C=C3)C(=O)NCc1ccccc1` showed an IC50 of 195 nM.
`NC(=O)CC[C@H](NC(=O)[C@@H]1Cc2cccc3c2N1C(=O)[C@@H](NC(=O)c1cc2cc(OP(=O)(O)O)ccc2[nH]1)CC3)C(=O)NCc1ccccc1` showed an IC50 of 190 nM.
`CCCC[C@H](NC(=O)[C@@H]1Cc2cccc3c2N1C(=O)[C@@H](NC(=O)/C=C/c1ccc(OP(=O)(O)O)cc1)CC3)C(N)=O` gave an IC50 of 19200 nM.

— ChEMBL document CHEMBL1153822, “Conformationally constrained peptidomimetic inhibitors of signal transducer and activator of transcription. 3: Evaluation and molecular modeling” (J Med Chem, 2009)
